Our source for the IC50 values is patent US8901315B2, “Thienopyrazole derivative having PDE7 inhibitory activity” (Daiichi Sankyo Company, Limited, priority 2004, dated 2014).

Counter-ions that a name gives are not always drawn. Like-named read-outs stand apart in the source and are kept apart here.

For experiment [1], the target named is PDE 4 (phosphodiesterase IV). The experiment in a line: PDE 4 inhibiting effect (3H-cAMP hydrolysis, PDE 4 active fraction from Balb/c mouse liver). The class given is biochemical. Particulars: PDE 4 fraction from Balb/c mice liver, 0.064 μM cAMP, 2 hours at 25° C.; read-out: PDE4 IC50. On the procedure:
Methods for Evaluating the PDE 4 Inhibiting Effect
The PDE 4 (phosphodiesterase IV) inhibiting effect of the compounds of the present invention was performed by the following method, which was modified assay method described in Biochemical. […] That is, the livers obtained from three Balb/c mice (male, 12 weeks: obtainable from CLEA Japan, Inc.) were suspended with 30 mL of buffer solution B [20 mM of bis-tris, 5 mM of 2-mercaptoethanol, 2 mM of benzamidine, 2 mM of EDTA, 0.1 mM of 4-(2-aminoethyl)benzenesulfonyl hydrochloride, 50 mM of sodium acetate; pH 6.5], then homogenized by Polytron® homogenizer. The homogenate were centrifuged under 25,000×G for 10 minutes at 4° C. The supernatant was separated and thus obtained supernatant was further centrifuged under 100,000×G for 60 minutes at 4° C., and then filtrated with 0.2 μm filter to obtain the soluble fraction. • (2) The obtained soluble fraction was filled in equilibrium DEAE sepharose column (1×10 cm) with buffer solution B, and phosphodiesterase fractions were eluted by 120 mL of buffer solution B with linear gradient from 0.05 to 1M sodium acetate concentration. 5 mL each of 24 eluents were collected, and each eluents were examined for cyclic AMP metabolic activities of phosphodiesterase. […] After the reaction, suspension of Sephadex®-QAE in 10 mM of HEPES-Na (pH 7.0) was added to the reaction mixture, and the mixture was left at rest for 5 minutes.

For experiment [2], the target named is PDE 7 (phosphodiesterase VII) (Homo sapiens (Human), UniProt Q13946). The experiment in a line: PDE 7 inhibiting effect (3H-cAMP hydrolysis, PDE 7 active fraction from MOLT-4 cells). The format is biochemical. As to conditions: read-out: PDE7 IC50. On the procedure:
Methods for Evaluating the PDE 7 Inhibiting Effect
The PDE 7 (phosphodiesterase VII) inhibiting effect of the compounds of the present invention was performed by the following method, which was modified assay method described in Biochemical. Pharmacol. 48(6), 1219-1223 (1994). • (1) The active fraction of PDE 7 (phosphodiesterase VII) was obtained. That is, MOLT-4 (obtainable from ATCC as ATCC No. CRL-1582), which was cell line of human acute lymphoblastic lymphoma T cells, was incubated in RPMI1640 culture medium containing 10% fetal bovine serum to obtain 5×10^8 MOLT-4 cells. The cells were collected by centrifugation and suspended with 10 mL of buffer solution A [25 mM of tris-HCl, 5 mM of 2-mercaptoethanol, 2 mM of benzamidine, 2 mM of EDTA, 0.1 mM of 4-(2-aminoethyl)benzenesulfonyl hydrochloride; pH 7.5], then homogenized by Polytron® homogenizer. The homogenate were centrifuged under 25,000×G for 10 minutes at 4° C. The supernatant was separated and thus obtained supernatant was further centrifuged under 100,000×G for 60 minutes at 4° C., and then filtrated with 0.2 μm filter to obtain the soluble fraction. • (2) The obtained soluble fraction was filled in equilibrium HiTrap Q column (5 mL×2) with buffer solution A, and phosphodiesterase fractions were eluted by 300 mL of buffer solution A with linear gradient from 0 to 0.8 M NaCl concentration. 5 mL each of 60 eluents were collected, and each eluents were examined for cyclic AMP metabolic activities of phosphodiesterase. […] After the reaction, suspension of Sephadex®-QAE in 10 mM of HEPES-Na (pH 7.0) was added to the reaction mixture, and the mixture was left at rest for 5 minutes.

Where [3] appears, read: PDE 7 fraction from MOLT-4 cells, 0.064 μM cAMP, 10 μM rolipram, 2 hours at 25° C.

PDE 7 (phosphodiesterase VII), sequence (Q13946 whole entry): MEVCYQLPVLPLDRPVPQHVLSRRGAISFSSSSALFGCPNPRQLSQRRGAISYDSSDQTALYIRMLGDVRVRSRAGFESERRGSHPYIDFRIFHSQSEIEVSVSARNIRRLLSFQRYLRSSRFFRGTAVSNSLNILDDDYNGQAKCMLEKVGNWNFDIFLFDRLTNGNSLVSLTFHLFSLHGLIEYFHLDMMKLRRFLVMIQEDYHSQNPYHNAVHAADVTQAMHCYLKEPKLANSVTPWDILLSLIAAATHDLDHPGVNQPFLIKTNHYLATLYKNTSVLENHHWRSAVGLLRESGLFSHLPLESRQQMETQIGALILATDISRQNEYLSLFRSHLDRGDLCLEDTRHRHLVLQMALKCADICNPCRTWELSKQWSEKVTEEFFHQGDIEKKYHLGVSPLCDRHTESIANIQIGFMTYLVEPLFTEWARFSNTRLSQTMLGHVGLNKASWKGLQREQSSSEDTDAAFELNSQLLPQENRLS

As for `Cc1nn(C2CCCCC2)c2sc(C(=O)N[C@H]3CC[C@H](CN4C(=O)CNC4=O)C3)cc12` [Example 258, 1-Cyclohexyl-N-{(1S,3S)-3-[(2,5-dioxo-1-imidazolidinyl)methyl]cyclopentyl}-3-methyl-1H-thieno[2,3-c]pyrazole-5-carboxamide], the half-maximal inhibitory concentration (IC50) (commonly the concentration needed to halve the response being measured) in experiment [1] worked out at 4700 nM; in experiment [2] (setting [3]), 15 nM.
In the case of `Cc1nn(C2CCCCC2)c2sc(C(=O)Nc3ccc(NC=O)cc3)cc12` [Example 53, 1-Cyclohexyl-N-[4-(formylamino)phenyl]-3-methyl-1H-thieno[2,3-c]pyrazole-5-carboxamide], the IC50 in experiment [1] was found to be 3500 nM; in experiment [2] (setting [3]), 55 nM.
The matching figures for `CNC1CCN([C@H]2CC[C@H](NC(=O)c3cc4c(C)nn(C5CCCCC5)c4s3)CC2)CC1` [Example 179, 1-Cyclohexyl-3-methyl-N-{trans-4-[4-(methylamino)-1-piperidinyl]-cyclohexyl}-1H-thieno[2,3-c]pyrazole-5-carboxamide]: 750 nM and 3.1 nM.
For `Cc1nn(C2CCCCC2)c2sc(C(=O)Nc3ccc(N4CCN(C)CC4)nc3)cc12` [Example 109, 1-Cyclohexyl-3-methyl-N-[6-(4-methyl-1-piperazinyl)-3-pyridinyl]-1H-thieno[2,3-c]pyrazole-5-carboxamide di-HCl salt], the IC50 in experiment [1] came to 1000 nM; in experiment [2], 15 nM.
`Cc1nn(C2CCCCC2)c2sc(C(=O)Nc3ccc(N4CC[C@@H](O)C4)cc3)cc12` [Example 262, 1-Cyclohexyl-N-{4-[(3R)-3-hydroxypyrrolidinyl]phenyl}-3-methyl-1H-thieno[2,3-c]pyrazole-5-carboxamide]: the IC50 in experiment [1] was 3800 nM; in experiment [2] (setting [3]), 28 nM.
As for `Cc1nn(C2CCOCC2)c2sc(C(=O)N[C@H]3CC[C@H](N4C[C@@H](C)O[C@@H](C)C4)CC3)cc12` [Example 402, N-[trans-4-(cis-2,6-Dimethylmorpholinyl)cyclohexyl]-3-methyl-1-tetrahydro-2H-pyran-4-yl-1H-thieno[2,3-c]pyrazole-5-carboxamide], the IC50 came out at 7300 nM in experiment [1] and 19 nM in experiment [2] (setting [3]).
As for `CCOC(=O)Nc1ccc(NC(=O)c2cc3c(C)nn(C4CCCCC4)c3s2)cc1` [Example 12, Ethyl 4-{[(1-cyclohexyl-3-methyl-1H-thieno[2,3-c]pyrazol-5-yl)-carbonyl]amino}phenylcarbamate], the IC50 in experiment [1] came out at 5000 nM; in experiment [2] (setting [3]), 53 nM.
The matching figures for `Cc1nn(C2CCCCC2)c2sc(C(=O)NCC(C)(C)CN3C(=O)CNC3=O)cc12` [Example 339, 1-Cyclohexyl-N-[3-(2,5-dioxo-1-imidazolidinyl)-2,2-dimethylpropyl]-3-methyl-1H-thieno[2,3-c]pyrazole-5-carboxamide]: 5100 nM and 20 nM.
Consider `Cc1cc(NC(=O)c2cc3c(C)nn(C4CCCCC4)c3s2)ccc1N1CCC(O)CC1` [Example 372], for which the IC50 in experiment [1] amounted to 4000 nM; in experiment [2] (setting [3]), 11 nM.
Take `Cc1nn(C2CCCCC2)c2sc(C(=O)Nc3cccc(S(=O)(=O)N4CCN(C)CC4)c3)cc12` [Example 110, 1-Cyclohexyl-3-methyl-N-{3-[(4-methyl-piperazinyl)sulfonyl]-phenyl}-1H-thieno[2,3-c]pyrazole-5-carboxamide HCl salt]: the IC50 in experiment [1] came to 5500 nM; in experiment [2] (setting [3]), 75 nM.
As to `Cc1nn(C2CCOCC2)c2sc(C(=O)N[C@H]3CC[C@H](N4CCC(C(=O)N(C)C)CC4)CC3)cc12` [Example 428, N-(trans-4-{4-[(Dimethylamino)carbonyl]-1-piperidinyl}cyclohexyl)-3-methyl-1-tetrahydro-2H-pyran-4-yl-1H-thieno[2,3-c]pyrazole-5-carboxamide], the IC50 in experiment [1] turned out to be 9700 nM; in experiment [2] (setting [3]) it was 50 nM.
`Cc1nn(C2CCCCC2)c2sc(C(=O)Nc3ccc(S(=O)(=O)N4CCN(C)CC4)cc3)cc12` [Example 36, 1-Cyclohexyl-3-methy-N-{4-[(4-methyl-1-piperazinyl)sulfonyl]-phenyl}-1H-thieno[2,3-c]pyrazole-5-carboxamide]: the IC50 was 25000 nM in experiment [1] and 40 nM in experiment [2] (setting [3]).
Take `Cc1nn(C2CCCCC2)c2sc(C(=O)N[C@H]3CC[C@H](C(=O)N4CCOCC4)CC3)cc12` [Example 236, 1-Cyclohexyl-3-methyl-N-[4-(4-morpholinylcarbonyl)cyclohexyl]-1H-thieno[2,3-c]pyrazole-5-carboxamide]: the values for the IC50 in experiment [1] and in experiment [2] (setting [3]) were 2700 nM and 20 nM, respectively.
For the compound `Cc1nn(C2CCOCC2)c2sc(C(=O)Nc3ccc(C(=O)N(C)C)cc3)cc12` [Example 255, N-{4-[(Dimethylamino)carbonyl]phenyl}-3-methyl-1 tetrahydro-2H-pyran-4-yl-1H-thieno[2,3-c]pyrazole-5-carboxamide], the IC50 came out at 12000 nM in experiment [1] and 89 nM in experiment [2] (setting [3]).
In the case of `Cc1nn(C2CCCCC2)c2sc(C(=O)N[C@H]3C[C@@H]3CO)cc12` (racemic) [Example 340, (±)-1-Cyclohexyl-N-[trans-2-(hydroxymethyl)cyclopropyl]-3-methyl-1H-thieno[2,3-c]pyrazole-5-carboxamide], the IC50 was found to be 28000 nM in experiment [1] and 54 nM in experiment [2] (setting [3]).
Turning to `Cc1nn(C2CCCCC2)c2sc(C(=O)Nc3ccc(N4C(=O)CN(C)C4=O)cc3)cc12` [Example 203, 1-Cyclohexyl-3-methyl-N-[4-(3-methyl-2,5-dioxo-1-imidazolidinyl)-phenyl]-1H-thieno[2,3-c]pyrazole-5-carboxamide], the IC50 in experiment [1] is 1400 nM; in experiment [2] (setting [3]) it was 6.1 nM.
As to `Cc1nn(C2CCCCC2)c2sc(C(=O)Nc3ccc(N4CCNC4=O)nc3)cc12` [Example 256, 1-Cyclohexyl-3-methyl-N-[6-(2-oxo-1-imidazolidinyl)-3-pyridinyl]-1H-thieno[2,3-c]pyrazole-5-carboxamide], the IC50 is 810 nM in experiment [1] and 2 nM in experiment [2] (setting [3]).
Take `CNC(=O)COc1ccc(NC(=O)c2cc3c(C)nn(C4CCCCC4)c3s2)cc1` [Example 67]: the IC50 was 3500 nM in experiment [1] and 23 nM in experiment [2] (setting [3]).
Take `Cc1nn(C2CCCCC2)c2sc(C(=O)Nc3ccc(N)cc3)cc12` [Example 99, N-(4-Aminophenyl)-1-cyclohexyl-3-methyl-1H-thieno[2,3-c]pyrazole-5-carboxamide]: the IC50 came out at 5000 nM in experiment [1] and 99 nM in experiment [2] (setting [3]).
For `COCCN(C)[C@H]1CC[C@H](NC(=O)c2cc3c(C)nn(C4CCCCC4)c3s2)CC1` [Example 172, 1-cyclohexyl-N-{trans-4-[(2-methoxyethyl)(methyl)amino]-cyclohexyl}-3-methyl-1H-thieno[2,3-c]pyrazole-5-carboxamide], in that order: 9400 nM and 48 nM.
The matching figures for `CNC1CCN(c2ccc(NC(=O)c3cc4c(C)nn(C5CCCCC5)c4s3)cc2Cl)CC1` [Example 165, N-{3-Chloro-4-[4-(methylamino)-1-piperidinyl]phenyl}-1-cyclohexyl-3-methyl-1H-thieno[2,3-c]pyrazole-5-carboxamide]: 650 nM and 20 nM.
For `Cc1nn(C2CCCCC2)c2sc(C(=O)N[C@H](C)CN3C(=O)CNC3=O)cc12` [Example 325, 1-Cyclohexyl-N-[(1R)-2-(2,5-dioxo-1-imidazolidinyl)-1-methylethyl]-3-methyl-1H-thieno[2,3-c]pyrazole-5-carboxamide], in that order: 4000 nM and 34 nM.
`Cc1nn(C2CCCCC2)c2sc(C(=O)Nc3ccc4c(c3)CCN4C(=O)C3CC3)cc12` [Example 58, 1-Cyclohexyl-N-[1-(cyclopropylcarbonyl)-2,3-dihydro-1H-indol-5-yl]-3-methyl-1H-thieno[2,3-c]pyrazole-5-carboxamide]: the values for the IC50 in experiment [1] and in experiment [2] (setting [3]) were 3600 nM and 36 nM, respectively.
